{
  "source": "patent US6573246B1",
  "about": "“Modified ether glyceroglycolipids” (The Liposome Company, Inc., priority 1995, dated 2003)",
  "key": {"[1]": {"system": "MCF-7 (breast adenocarcinoma) cells", "experiment": "growth inhibition of MCF-7 cells in culture", "type": "cell-based, human", "details": "MCF7, mean ± standard deviation, read-out: Gl50 (concentration of lipid required to inhibit the growth of fifty percent of the cells in culture)", "description": "(§1) Human epithelial cancer cell lines were grown from frozen stocks originally obtained from the ATCC, in media commonly used for growing these cells in culture. For example, A549 cells (non-small cell lung adenocarcinoma) were cultured in Ham's F-12 medium, T84 cells (colon carcinoma) were cultured in a 1:1 mixture of F-12 and DMEM while MCF-7 (breast adenocarcinoma) and A427 (large cell lung carcinoma) cells were cultured in DMEM. The media were supplemented with 10% fetal bovine serum, penicillin (50 U/ml), streptomycin (50 micogram/ml) and fungizone (0.5 microgram/ml). OVCAR-3 cells (ovarian adenocarcinoma) were cultured in RPMI 1640 medium supplemented with 20% FBS and 10 microgram/ml insulin.\n(§2) Cells were subcultured into 24-well plates and the cell number was monitored daily. When the cells were in log phase, the media was replaced with one containing the required drug concentration, and the cells were incubated for 72 h. The increase in cell numbers relative to control wells (without any drug) was determined after the incubation. Stock solutions of the drugs ([…]) were prepared in ethanol and stored at −20 deg. C. Etherlipid solutions (30 micromolar) in the appropriate media were prepared fresh on the day of the experiment and serially diluted to give the required concentrations. The final concentration of ethanol in all wells was 0.1% (v/v).\n(§3) Gl50 values are given as the mean ± standard deviation; the Gl50 value from each experiment “n” was generated from three individual wells on two separate plates (six total wells); n=1 for compounds 3-6; n=2 for most cell lines treated with compound 2 ^an=3; ^bn=2; ^cn=6; ^dn=8."}, "[2]": {"system": "MCF-7/Adr (adriamycin-resistant) cells", "experiment": "growth inhibition of MCF7/adr cells in culture", "type": "cell-based, human", "details": "mean ± standard deviation, read-out: Gl50 (concentration of lipid required to inhibit the growth of fifty percent of the cells in culture)", "description": "(§4) The Gl50 values for edelfosine (1), 2′-deoxy-β-D-arabinopyranosyl (2), 2′-deoxy-α-D-arabinopyranosyl (3), 2-O-methyl-β-D-glucopyranosyl (4), 2′-O-methyl-β-D-mannopyranosyl (5) and α-D-mannopyransoyl (6) on A-549, MCF-7, Lewis Lung, MCF-7/Adr (adriamycin-resistant), P388, P-388/Adr, L1210 and L1210/vmdr cells were determined and are set forth below (see Table 4) as the concentration (micromolar) of lipid required to inhibit the growth of fifty percent of the cells in culture.\nas §3"}, "[3]": {"system": "A549 cells (non-small cell lung adenocarcinoma)", "experiment": "growth inhibition of A549 cells in culture", "type": "cell-based, human", "details": "mean ± standard deviation, read-out: Gl50 (concentration of lipid required to inhibit the growth of fifty percent of the cells in culture)", "description": "as §1, §2, §3"}, "HT29 cells": {"system": "HT29 cells", "experiment": "growth inhibition of HT29 cells in culture", "type": "cell-based", "details": "read-out: Gl50 (concentration of lipid required to inhibit the growth of fifty percent of the cells in culture)"}, "[4]": {"system": "OVCAR-3 cells (ovarian adenocarcinoma)", "experiment": "growth inhibition of OVCAR-3 cells in culture", "type": "cell-based, human", "details": "for growth: increase in cell numbers relative to control wells (control = 100): OVCAR-3, 72 h", "description": "as §1, §2"}, "L1210 cells": {"system": "L1210 cells", "experiment": "growth inhibition of L1210 cells in culture", "type": "cell-based", "details": "mean ± standard deviation, read-out: Gl50 (concentration of lipid required to inhibit the growth of fifty percent of the cells in culture)", "description": "as §4, §3"}, "P-388/Adr cells": {"system": "P-388/Adr cells", "experiment": "growth inhibition of P388/adr cells in culture", "type": "cell-based, murine", "details": "mean ± standard deviation, read-out: Gl50 (concentration of lipid required to inhibit the growth of fifty percent of the cells in culture)", "description": "as §4, §3"}, "L1210/vmdr cells": {"system": "L1210/vmdr cells", "experiment": "growth inhibition of L1210/vmdr cells in culture", "type": "cell-based", "details": "mean ± standard deviation, read-out: Gl50 (concentration of lipid required to inhibit the growth of fifty percent of the cells in culture)", "description": "as §4, §3"}, "Lewis Lung cells": {"system": "Lewis Lung cells", "experiment": "growth inhibition of Lewis Lung cells in culture", "type": "cell-based, murine", "details": "mean ± standard deviation, read-out: Gl50 (concentration of lipid required to inhibit the growth of fifty percent of the cells in culture)", "description": "as §4, §3"}, "P388 cells": {"system": "P388 cells", "experiment": "growth inhibition of P388 cells in culture", "type": "cell-based, murine", "details": "mean ± standard deviation, read-out: Gl50 (concentration of lipid required to inhibit the growth of fifty percent of the cells in culture)", "description": "as §4, §3"}},
  "note": "Where two headings read alike, the source gives them in different places.",
  "data": [
    {"smiles": "CCCCCCCCCCCCCCCCCCOCC(COP(=O)([O-])OCC[N+](C)(C)C)OC", "note": "(stereo not drawn) [compound 1, edelfosine, reference compound]", "values": [
      {"measurement": "IC50", "setting": "[1]; Homo sapiens", "value": 9.66, "unit": "µM"},
      {"measurement": "IC50", "setting": "[2]; Homo sapiens, NCI/ADR-RES", "value": 30.4, "unit": "µM"},
      {"measurement": "IC50", "setting": "[3]; Homo sapiens", "value": 5.05, "unit": "µM"},
      {"measurement": "IC50", "setting": "HT29 cells; Homo sapiens, HT-29, mean ± standard deviation", "value": 2.2, "unit": "µM"},
      {"measurement": "IC50", "setting": "[4]; Homo sapiens, OVCAR-3 ovarian cancer cell line, read-out: Gl50 (the source's name)", "value": 24, "unit": "µM"},
      {"measurement": "growth: increase in cell numbers relative to control wells (control = 100)", "setting": "[4]; lipid concentration 5 μM", "value": "105.8 ± 8.5"},
      {"measurement": "growth: increase in cell numbers relative to control wells (control = 100)", "setting": "[4]; lipid concentration 10 μM", "value": "77.5 ± 1.0"},
      {"measurement": "growth: increase in cell numbers relative to control wells (control = 100)", "setting": "[4]; lipid concentration 15 μM", "value": "70.7 ± 9.9"},
      {"measurement": "growth: increase in cell numbers relative to control wells (control = 100)", "setting": "[4]; lipid concentration 20 μM", "value": "68.7 ± 13.6"},
      {"measurement": "growth: increase in cell numbers relative to control wells (control = 100)", "setting": "[4]; lipid concentration 30 μM", "value": "20.4 ± 8.1"},
      {"measurement": "IC50", "setting": "L1210 cells; Mus musculus", "value": 3.32, "unit": "µM"},
      {"measurement": "IC50", "setting": "P-388/Adr cells; Mus musculus", "value": 6.39, "unit": "µM"},
      {"measurement": "IC50", "setting": "L1210/vmdr cells; Mus musculus", "value": 11, "unit": "µM"},
      {"measurement": "IC50", "setting": "Lewis Lung cells; Mus musculus, Lewis lung carcinoma", "value": 30.2, "unit": "µM"},
      {"measurement": "IC50", "setting": "P388 cells; Mus musculus", "value": 4.33, "unit": "µM"}
    ]},
    {"smiles": "CCCCCCCCCCCCCCCCOC[C@H](CO[C@H]1C[C@H](O)[C@H](O)CO1)OC", "note": "[compound 2, 1-O-Hexadecyl-2-O-methyl-3-O-(2′-deoxy-β-D-arabinopyransoyl)-sn-glycerol]", "values": [
      {"measurement": "IC50", "setting": "[1]", "value": "6.93 ± 0.12", "unit": "µM"},
      {"measurement": "IC50", "setting": "[2]", "value": "12.8 ± 0.85", "unit": "µM"},
      {"measurement": "IC50", "setting": "[3]", "value": "9.9 ± 0.99", "unit": "µM"},
      {"measurement": "IC50", "setting": "HT29 cells; mean ± standard deviation", "value": "7.59 ± 0.23", "unit": "µM"},
      {"measurement": "IC50", "setting": "L1210 cells", "value": "7.02 ± 0.49", "unit": "µM"},
      {"measurement": "IC50", "setting": "P-388/Adr cells", "value": "10.2 ± 0.34", "unit": "µM"},
      {"measurement": "IC50", "setting": "L1210/vmdr cells", "value": "7.09 ± 0.33", "unit": "µM"},
      {"measurement": "IC50", "setting": "Lewis Lung cells", "value": "11.1 ± 0.49", "unit": "µM"},
      {"measurement": "IC50", "setting": "P388 cells", "value": "12.7 ± 0.78", "unit": "µM"}
    ]}
  ]
}
